Results taken from patent US12594255B2, “Lipids with odd number of carbon atoms and their use as pharmaceutical composition or nutritional supplement” (SunRegen Healthcare AG, priority 2016, dated 2026).
Where two headings read alike, the source gives them in different places.

Experiments:
[1] = test system: mouse primary cortical neurons challenged with Aβ1-42 oligomers (AβO); assay: AβO-induced neurotoxicity, test item added concomitantly (T0) or 3 h (T3) or 6 h (T6) after AβO, MTT assay; assay type: cell-based; details: for % of neuroprotection and anti-apoptotic effects / viability at 1 µM: 1000 nM
Method: Mouse primary cortical neurons were treated at 0 h (T0) with vehicle or 1 μM AβO, Different concentrations of Compound C or HNG (0.1 μM, used as positive control) were added concomitantly to AβO at 0 h (T0)), 3 h (T3) or 6 h (T6) after AβO. Then, cortical neurons were incubated for 24 h and cell viability was determined using the MTT assay (n=3 determinations per condition, 1 independent experiment). Data are represented as % of vehicle control (Mean±SD). […]
The aim of this study is to determine whether Compound C might present neuroprotective, anti-apoptotic and neuro-rescuing effects in in vitro AβO induced neuron death models. For that purpose, the neuro-protective effects of compound C at six concentrations were investigated using mouse primary cortical neurons challenged with Aβ1-42 oligomers (AβO) Compounds were added at different time points (concomitantly T0 with AβO and T3, or T6 after AβO) with the aim to identify rescuing effects or anti-apoptotic effects.
Cortical neurons from embryonic day 16-17 are prepared from C57Bl6/J mouse fetuses, as described in Example I-1.
Mouse cortical neurons were exposed for 24 h to 1.0 μM AβO. The AβO-induced neurotoxicity was evaluated using the MTT assay. […] (FIG. 4)
The percentage of neuroprotection and anti-apoptosis effects was defined as; (neuron viability of compound C group−neuron viability of toxin treated group)/(100−neuron viability of toxin treated group)×100%. The % of neuroprotection and anti-apoptotic effects of compound C at 1000 nM is 88.7%, 52.0%, 22.3%, at T0, T3, or T6, respectively. (FIG. 4) […]

[2] = test system: mouse primary cortical neurons challenged with different types toxins; assay type: cell-based; details: T3

With CCCCCCCCCCCCCCC(=O)OCC(COC(=O)CCCCCCCCCCCCCC)OC(=O)CCCCCCCCCCCCCC [Compound C, tripentadecanoin] the “% of neuroprotection and anti-apoptotic effects” value ([1]; T0) was 88.7%, the “% of neuroprotection and anti-apoptotic effects” value ([1]; T3) was 52.0% and the “% of neuroprotection and anti-apoptotic effects” value ([1]; T6) was 22.3%. The viability at 0.32 µM ([1]; Mus musculus, Primary cortical neuron, 320 nM, added 3 h after AβO (T3)) was 65.3 ± 2.6%, the viability at 1 µM ([1]; Mus musculus, Primary cortical neuron, added 3 h after AβO (T3)) was 76.6 ± 2.9% and the viability at 1 µM ([1]; Mus musculus, Primary cortical neuron, added 6 h after AβO (T6)) was 62.4 ± 3.5%. The viability at 1 µM ([1]; Mus musculus, Primary cortical neuron, added concomitantly to AβO (T0)) was 94.5 ± 4.6%, the “anti-apoptotic and neuroprotective effects” value ([2]; Aβ1-42 fibrils, 10000 nM) was 223% and the “anti-apoptotic and neuroprotective effects” value ([2]; Aβ25-35 fibrils, 10000 nM) was 32.1%. The “anti-apoptotic and neuroprotective effects” value ([2]; alpha-synuclein fibrils, 1000 nM) was 34.0%, the “anti-apoptotic and neuroprotective effects” value ([2]; human alpha-synuclein oligomer-induced toxicity, 10000 nM) was 45.8% and the “anti-apoptotic and neuroprotective effects” value ([2]; human amylin fibrils, 1000 nM) was 45.3%. The “anti-apoptotic and neuroprotective effects” value ([2]; human amylin fibrils, 10000 nM) was 52.6%, the “anti-apoptotic and neuroprotective effects” value ([2]; human amylin oligomers, 1000 nM) was 30.8% and the “anti-apoptotic and neuroprotective effects” value ([2]; human amylin oligomers, 10000 nM) was 37.3%. For the same molecule, the “anti-apoptotic and neuroprotective effects” value ([2]; human tau oligomer-induced toxicity, 10000 nM) was 46.8% and the “anti-apoptotic and neuroprotective effects” value ([2]; tau fibril-induced toxicity, 10000 nM) was 23.1%.
